For data set [1] the following is noted: Phase I dose escalation study, human; cited from earlier work.
Data set [2] can be described thus: Brain penetration of parental drug and metabolites in mice (PD study). The note with it: mouse, po, 10 mg/kg.
A further data set has as its system serum PSA. The note with it: mCRPC patients. The method, then:
There were two (2) stages or arms to the study, Stage A and Stage B.
During Stage A, the dose escalation tolerance (or tolerability) study was conducted using the traditional rule-based 3+3 design. All subjects in Stage A were involved in pharmacokinetic studies. […]
Stage A: PSA was dynamically observed to assess the initial dose-effectiveness based on data from subjects in each dose group until the end of the 12-week trial period. Serum PSA test, safety evaluation (including blood, liver and kidney function, electrocardiogram, etc.) were performed at the 6th, 8th, 10th and 12th weeks of visit, and the trial ended at the 12th week of visit.
They show the percentage change in PSA levels for subjects in the study. In both figures, the vertical axis represents the percent change in PSA levels from the baseline and the horizontal axis (numbers that are in line with the “0%”) identifies individual patient or subject numbers.

The conditions of data set [3]: dog, in vivo, 90 mg/kg.
The nature of data set [4]: Clinical pharmacokinetic study of HC-1119 (Stage A, plasma M0, M1, M2). The note with it: steady state, 80 mg HC-1119.
Procedure: Single dose biological sample collection: Subjects were given a single fasting dose on the first day of the study. Blood samples were collected before (−0.5˜0 h) and after administration 0.5, 0.75, 1, 2 h (±5 min), 4, 8, 12 h (±15 min), 24 h (±30 min, Day 2 before administration). Venous blood (3 mL) was collected, set in an anticoagulant tube (type of anticoagulant was based on established analytical test methods).
Continuous administration of biological samples collected: Blood sample collected on continuous administration Day 7, 21, 35, 42, 56, 70, 84 before administration, on Day 84 after administration 0.5, 0.75, 1, 2 h (±5 min), 4, 8, 12 h (±15 min), 24 h (±30 min, Day 85 before administration). Venous blood (3 mL) was collected, set in an anticoagulant tube (type of anticoagulant was based on established analytical test methods).
Sample Handling: Samples were centrifuged (about 3000 rpm for 10 minutes) to separate the plasma as soon as possible. Isolated plasma samples were stored in duplicate in plasma cryostat, with the tagged population's enrollment number, subject's initials, date and time of collection. Plasma samples were stored in −60° C.˜−80° C. freezer as soon as possible. One blood sample was retained at the research center and one blood sample was shipped to a specialist testing company for plasma drug concentration determination.
The conditions of data set [5]: mouse, in vivo.
The nature of data set [6]: In vitro activity of metabolites M1 and M2. As to conditions: in vitro experiments.
In the next data set the target is T1, AR (Homo sapiens, UniProt P10275).
T1 sequence (P10275 1-920): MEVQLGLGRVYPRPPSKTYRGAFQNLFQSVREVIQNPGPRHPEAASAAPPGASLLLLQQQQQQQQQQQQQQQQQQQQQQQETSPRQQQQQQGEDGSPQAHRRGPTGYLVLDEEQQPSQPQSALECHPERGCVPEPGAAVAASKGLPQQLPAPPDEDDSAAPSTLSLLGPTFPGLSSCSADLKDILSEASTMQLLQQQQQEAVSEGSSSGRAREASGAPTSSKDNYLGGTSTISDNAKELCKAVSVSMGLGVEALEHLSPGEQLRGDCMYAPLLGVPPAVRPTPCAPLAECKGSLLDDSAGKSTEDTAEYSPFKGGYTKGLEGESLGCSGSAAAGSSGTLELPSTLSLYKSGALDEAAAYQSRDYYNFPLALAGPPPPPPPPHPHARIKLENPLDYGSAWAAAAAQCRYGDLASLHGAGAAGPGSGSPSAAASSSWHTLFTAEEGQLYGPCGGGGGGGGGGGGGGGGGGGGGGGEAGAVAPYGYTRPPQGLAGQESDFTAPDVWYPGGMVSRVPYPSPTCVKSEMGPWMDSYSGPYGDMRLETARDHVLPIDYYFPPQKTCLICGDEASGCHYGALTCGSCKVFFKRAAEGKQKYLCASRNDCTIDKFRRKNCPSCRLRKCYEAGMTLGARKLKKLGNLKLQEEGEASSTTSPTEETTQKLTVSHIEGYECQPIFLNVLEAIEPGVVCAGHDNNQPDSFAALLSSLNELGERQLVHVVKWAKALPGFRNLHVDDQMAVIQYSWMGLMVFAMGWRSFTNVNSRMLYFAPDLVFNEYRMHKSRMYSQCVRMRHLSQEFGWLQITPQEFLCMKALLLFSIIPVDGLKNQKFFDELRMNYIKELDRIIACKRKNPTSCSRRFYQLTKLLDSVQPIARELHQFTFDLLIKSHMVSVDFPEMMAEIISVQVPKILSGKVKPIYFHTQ
As to conditions: read-out: Ki for AR binding.

Another data set concerns LNCaP. Put plainly: LNCaP growth inhibition. It counts as cell-based.

Molecules are shown by their SMILES. “Also recorded” adds a separate entry of the source. Read-outs that look alike come from different tables or passages of the source.

One may read the Kp as tissue or fluid exposure divided by exposure in the circulation. As usually defined, the Ki is a measure of affinity in units of concentration, obtained from inhibition or displacement. As a reminder, the IC50 is the midpoint of a concentration-inhibition curve. A lower IC50 goes with higher potency.

In the case of `CNC(=O)c1ccc(N2C(=S)N(c3ccc(C#N)c(C(F)(F)F)c3)C(=O)C2(C)C)cc1F` [enzalutamide], the “maximum tolerable dosage (MTD)” value in data set [1] is 240 mg/day. The concentration at 24 h in data set [2] (brain) was 647 ng/g; in data set [2] (plasma), 2100 ng/mL. In [2] (brain/plasma), the Kp at 24 h is 0.31.

Consider `[2H]C([2H])([2H])NC(=O)c1ccc(N2C(=S)N(c3ccc(C#N)c(C(F)(F)F)c3)C(=O)C2(C)C)cc1F` [HC-1119, 4-{3-[4-cyano-3-(trifluoromethyl)phenyl]-5,5-dimethyl-4-oxo-2-thio-1-imidazolidinyl}-2-fluoro-N-trideuteromethylbenzamide], for which the “maximum decrease in PSA levels by more than 50% from the baseline (maximum response rate)” value in the data set with serum PSA (40 mg dose group) was 66.7%; in the data set with serum PSA (80 mg dose group), 88.8%; in the data set with serum PSA (160 mg dose group) it was 50%; in the data set with serum PSA (200 mg dose group), 100%. Moreover, the “rate of decrease in PSA levels by more than 50% from the baseline (response rate at week 12)” value was found to be 66.7% in the data set on serum PSA (40 mg dose group), 75% with serum PSA (80 mg dose group), 57.1% in the data set with serum PSA (160 mg dose group) and 33.3% in the data set on serum PSA (200 mg dose group). In addition, in data set [3], the “adult equivalent dose (HED) calculated from HNSTD” value is 2916 mg/day. The “C24 h for the combination of the active drugs (M0+M2)” value in [4] is “close to that of 160 mg enzalutamide”. The same compound showed a Brain in data set [5] (po, 10 mg/kg) of 1393 ng/g. The compound further came in with a Plasma in data set [5] (po, 10 mg/kg) of 4686 ng/mL.

For `CC1(C)C(=O)N(c2ccc(C#N)c(C(F)(F)F)c2)C(=S)N1c1ccc(C(=O)O)c(F)c1` [M1], in data set [6], the in vitro activity result was “inactive; also recorded: not active”.

On to `CC1(C)C(=O)N(c2ccc(C#N)c(C(F)(F)F)c2)C(=S)N1c1ccc(C(N)=O)c(F)c1` [M2], for which the Ki at AR was 0.057 µM. Moreover, the “crossing of the blood-brain barrier (BBB)” value in data set [5] is “more readily cross the blood-brain barrier”. In the data set on LNCaP, this compound came in with an IC50 of 0.00013 µM.

Values taken from patent publication US20210137890A1, “DEUTERATED IMIDAZOLIDINEDIONE COMPOUNDS AND THEIR USES” (priority 2018, published 2021).
